In patent US20240335425A1, “PHARMACEUTICAL COMPOSITIONS OF ALPHA-2-ADRENERGIC RECEPTOR AGONISTS AND THEIR USE FOR IMPROVING VISION” (Allergan, Inc., priority 2020, published 2024):
Read-outs that look alike come from different tables or passages of the source. Each block holds one compound with its values, some of them ahead of it.

Legend:
[1] = Method: Aliquots of the PBS only curve were quenched at time zero to be used as stability controls and calibration standards. Following centrifugation, samples were analyzed by LC-MS/MS bioanalysis. Back-calculated concentrations using the assay PBS curve were used for binding and stability calculations.
human alpha-2A receptor = target: T1, human alpha-2A receptor (Homo sapiens, UniProt P08913); experiment: FLIPR calcium assay, HEK293 cells with human alpha-2A receptor coupled via chimeric Gqi5; format: cell-based
T1 construct: expressed in transfected cells
T1 sequence (P08913 1-465): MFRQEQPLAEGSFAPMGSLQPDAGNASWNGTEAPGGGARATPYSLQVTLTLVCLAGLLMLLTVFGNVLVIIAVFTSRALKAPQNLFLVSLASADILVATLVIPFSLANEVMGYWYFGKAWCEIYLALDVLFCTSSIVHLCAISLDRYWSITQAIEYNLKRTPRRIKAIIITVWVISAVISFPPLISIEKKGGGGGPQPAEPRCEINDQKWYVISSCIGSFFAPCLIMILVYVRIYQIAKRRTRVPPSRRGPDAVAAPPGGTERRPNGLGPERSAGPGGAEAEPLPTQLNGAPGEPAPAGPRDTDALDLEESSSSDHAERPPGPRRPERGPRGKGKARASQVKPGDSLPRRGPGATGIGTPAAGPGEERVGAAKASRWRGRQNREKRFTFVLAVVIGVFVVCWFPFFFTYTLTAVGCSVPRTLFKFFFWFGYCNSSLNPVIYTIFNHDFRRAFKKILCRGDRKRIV
Method: (§1) An in vitro FLIPR (fluorometric image plate reader) assay was performed on several compounds, including the compound of Formula I (entry 1 in Table 1).
Specifically, four HEK293 stable cell lines were used in the FLIPR assay. The HEK293 cell line which stably expressed the bovine alpha adrenergic 1A receptor was used to characterize the alpha1 pharmacology. The alpha-2 adrenergic receptor family is a G coupled G-protein receptor. Therefore, in order to use these cell lines in the calcium based FLIPR assay, the chimeric G-protein Gqi5 was used to force the coupling of the human alpha-2A, alpha-2B, and alpha-2C receptors to the calcium pathway. Cells were plated, in triplicate, in poly-D-lysine coated 384-well plates at 25,000 cells per well and grown overnight in DMEM supplemented with 10% fetal bovine serum. For FLIPR evaluation, cells were washed twice with HBSS/HEPES buffer (1× Hanks Buffered Salt Solution, 20 mM HEPES, pH 7.4) prior to the addition of Fluo-4-AM (4 uM Fluo-4-AM, 0.04% pluronic acid in HBSS/HEPES buffer), a calcium-sensitive dye. Cells were loaded with dye for 40 minutes at 37° C., and then washed 4 times with HBSS/HEPES buffer to remove the excess dye. The test compounds were profiled at concentrations between 0.64 nM and 10,000 nM using a […] dilution factor.
(§2) The receptor activation was initiated by the addition of the appropriate dilutions of compounds and the transient calcium signal was captured. The peak height of the calcium curve was determined and utilized for calculation of EC50 and relative efficacy values using Activity Base software. EC50 was calculated using a 4 Parameter Logistic Equation: y=A+((B−A)/(1+((C/x)^D))) where A and B represents the bottom and top plateau of the curve; C represents the EC50 value; D represents the slope factor; and x and y represent the original x (drug concentration) and y (fluorescence signal, RFU) values.

Dutch Belted rabbits = experiment: In vivo rabbit miosis model (pupil diameter after single topical dose); details: for animals with greater than 2.5 mm reduction in pupil size from baseline: 0.1% w:v, scotopic (<10 lux), n=6; for miotic efficacy compared with other alpha adrenergic receptor agonists: low-light conditions (2-10 Lux)
Method: Female Dutch Belted rabbits (Covance, Princeton, New Jersey) weighing between 2-4 kg were used for these studies. […] For topical dosing, eye drops (volume=35 μl) were instilled into the lower conjunctival sac of the test eye.
Pupil diameter was measured in both the treated and untreated eye with an Optistick to the nearest 0.5 mm. […]

[2] = target: T2, bovine alpha adrenergic 1A receptor (Bos taurus, UniProt P18130); experiment: FLIPR calcium assay, HEK293 cells stably expressing bovine alpha 1A receptor; format: cell-based; details: HEK293 stable cell line, peak calcium signal; read-out: bovine alpha1A EC50 (nm)
T2 construct: expressed in transfected cells
T2 sequence (P18130 1-466): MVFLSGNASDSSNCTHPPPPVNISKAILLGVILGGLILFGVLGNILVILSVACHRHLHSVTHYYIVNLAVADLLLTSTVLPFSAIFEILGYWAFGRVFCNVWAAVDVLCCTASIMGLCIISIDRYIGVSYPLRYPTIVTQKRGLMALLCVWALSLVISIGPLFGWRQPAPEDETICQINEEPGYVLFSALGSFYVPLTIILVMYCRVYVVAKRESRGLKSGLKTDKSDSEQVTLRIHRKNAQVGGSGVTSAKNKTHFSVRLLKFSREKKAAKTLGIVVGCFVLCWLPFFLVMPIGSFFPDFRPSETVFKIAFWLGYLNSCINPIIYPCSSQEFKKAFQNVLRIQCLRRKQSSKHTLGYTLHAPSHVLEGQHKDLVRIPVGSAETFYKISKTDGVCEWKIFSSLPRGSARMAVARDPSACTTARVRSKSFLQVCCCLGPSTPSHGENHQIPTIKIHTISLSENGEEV
Method: as §1
Specifically, four HEK293 stable cell lines were used in the FLIPR assay. The HEK293 cell line which stably expressed the bovine alpha adrenergic 1A receptor was used to characterize the alpha1 pharmacology. The alpha-2 adrenergic receptor family is a G coupled G-protein receptor. Therefore, in order to use these cell lines in the calcium based FLIPR assay, the chimeric G-protein Gqi5 was used to force the coupling of the human alpha-2A, alpha-2B, and alpha-2C receptors to the calcium pathway. […]
as §2

healthy participants = experiment: Clinical Study 1 in healthy individuals, single ascending dose; format: in vivo, human; details: left eye, 0.01% to 0.1% (w/v)
From the text: In this study, 36 healthy participants (male and female; 40 to 65 years of age) are randomized to participate in single-ascending dose cohorts (designated Cohorts 1, 2, and 3 as shown in Table 9 below) to evaluate safety, tolerability, pharmacokinetics, and target engagement of the compound of Formula I. In each cohort of this study 12 participants are randomized in a 3:1 ratio to receive an ophthalmic solution containing the compound of Formula I (9 participants) or vehicle (3 participants). Participants that are randomized to receive the ophthalmic solution containing the compound of Formula I are administered a single drop of the ophthalmic solution containing the compound of Formula I at doses ranging from 0.01% (w/v) to 0.1% (w/v) (Formulations A-C; see Examples 8-10), with the option of also using a 0.3% (w/v) dose (Formulation D; see Example 11), in the left eye, as indicated in Table 7 below (“SD” means single dose and “OS” means left eye).
Each participant is admitted to the study site on the evening before dosing (Day −1). […]
Safety and tolerability are evaluated by monitoring participants in the three cohorts of this study for exhibition/reporting of adverse events and monitoring characteristics/assessments such as vital signs, electrocardiogram measurements, clinical laboratory assessments, study intervention tolerability and drop comfort assessments, intraocular pressure measurements, slit-lamp biomicroscopy, and dilated funduscopic examination. Systemic and local pharmacokinetics of the compound of Formula I are evaluated by measuring plasma and tear concentrations of the compound of Formula I in the participants and also determining pharmacokinetic parameters such as area under the curve, clearance, half-life, maximum concentration, time to maximum concentration. Target engagement is measured by measuring the pupil size of the participants during the study. […]

[3] = system: participants diagnosed with presbyopia; experiment: Clinical Study 2 in presbyopes, once daily for 14 days; format: in vivo, human
From the text: In this study, approximately 108 participants diagnosed with presbyopia (male and female; 40 to 65 years of age) are selected to participate.
Cohorts 4, 5, and 6 (Part A) are multiple ascending dose cohorts in which participants are randomized to receive either the compound of Formula I at doses ranging from 0.01% to 0.1% or vehicle once daily in both eyes for 14 days. Each cohort in Part A consists of 9 participants who receive active intervention (the compound of Formula I) and 3 participants that receive vehicle in order to evaluate safety, tolerability, pharmacokinetics, and clinical efficacy of the compound of Formula I. As with Example 8, after each cohort is completed, the independent data monitoring committee reviews the safety, pharmacokinetic, and target engagement data to determine if it is acceptable to proceed to the next planned dosing cohort. The dose of the compound of Formula I in Part B (Cohorts 7 and 8) is selected by the data monitoring committee after Cohort 6 has completed.
Cohort 7 is a single-masked, active comparator cohort that includes approximately 60 masked participants with presbyopia randomized 1:1 to receive either pilocarpine 1.25% (w/v) ophthalmic solution or an ophthalmic solution of the compound of Formula I administered at the dose strength recommended by the data monitoring committee for 14 days. Safety, tolerability, and efficacy is assessed after topical ocular administration of the compound of Formula I compared with pilocarpine 1.25%. Common adverse events associated with pilocarpine (particularly when administered to the eye) include, for example, headache, brow ache, accommodative change, eye irritation, eye pain, blurred vision, visual impairment, ocular blurring, ocular discomfort, blurry vision, light sensitivity, stinging, and itching.
Cohort 8 is a cohort to evaluate safety, tolerability, pharmacokinetics, and efficacy of the compound of Formula I administered at the dose strength recommended by the data monitoring committee compared with vehicle for 14 days in participants with presbyopia who wear contact lenses (9 participants receive the compound of Formula I and 3 participants receive vehicle).
In all cohorts of this study (Cohorts 4 to 8), participants receive their first dose in clinic on Day 1, and stay in clinic for safety, pharmacokinetic, and efficacy evaluations for 10 hours post-dose. The participants then return for dosing and safety evaluations once daily from Day 2 to Day 7. They then receive multidose bottles for single unit of use for at-home dosing from Days 8 to 13 and return to the clinic on Day 14 for dosing as well as safety, tolerability, pharmacokinetic (Cohorts 4 to 6, and 8 only), and efficacy evaluations for 10 hours post-dose. On Day 30, participants return for a safety follow-up and close out visit.
In Parts A and B of this study, safety and tolerability are evaluated as in Example 12 (i.e. by monitoring participants in the three cohorts for exhibition/reporting of adverse events and monitoring the characteristics/assessments as are monitored in Example 12), with the additional characteristics/assessments of contrast sensitivity, photopic (e.g. ≥80 cd/m^2; 251 lux at target) and mesopic (e.g. 3.2 to 3.5 cd/m^2; 10 to 11 lux at target) high contrast corrected distance visual acuity (each eye and binocularly), manifest refraction (mesopic and photopic) also being measured in Part A. Systemic and local pharmacokinetics of the compound of Formula I are evaluated by measuring plasma and tear concentrations of the compound of Formula I in the participants and also determining pharmacokinetic parameters as is done in Example 12. Target engagement is measured by measuring the pupil size of the participants during the study as is done in Example 12. […]

presbyopic patients = details: different lighting conditions; cited from earlier work
[4] = HEK293 stable cell line with Gqi5, peak calcium signal, read-out: human alpha2A EC50 (nm)
[5] = Part A, bilaterally for 14 days
[6] = Part B, Cohort 8, contact lens wearers, 14 days

melanin binding (in words) [1]: no significant melanin binding
EC50 (human alpha-2A receptor; [4]): 0.7 nM
EC50 [2]: 286 nM
SMILES: Cc1c(N=C2NCCN2)ccc2[nH]cnc12 [Compound 1]
animals with greater than 2.5 mm reduction in pupil size from baseline (Dutch Belted rabbits; after 6 hours): more than half
animals with greater than 2.5 mm reduction in pupil size from baseline (Dutch Belted rabbits; two hours after dosing): virtually all animals
miotic action (peak pupil constriction and duration) (Dutch Belted rabbits; room lighting conditions, versus brimonidine): greater miotic action than brimonidine
effect on pupil constriction compared to Compound 3 (Dutch Belted rabbits; topical dose): greater effect on pupil constriction
pupil constriction at 9 hours after dosing (Dutch Belted rabbits; topical dose, 9 hours): significant pupil constriction
miotic efficacy compared with other alpha adrenergic receptor agonists (Dutch Belted rabbits; topical dose): best miotic effect
pupil diameter compared with vehicle (healthy participants): decrease in pupil diameter
safety and tolerability (healthy participants): acceptable safety and tolerability profiles
systemic exposures (healthy participants): sufficient safety margins
depth of focus compared with vehicle [3, 5]: improved depth of focus
distance corrected near visual acuity compared with vehicle [3, 5]: numeric improvement (e.g. two or three lines)
patient reported outcome questionnaires/questions compared with vehicle [3, 5]: more positive answers
pupil diameter compared with vehicle [3, 5]: decrease in pupil diameter
systemic exposures [3, 5]: sufficient safety margins
safety and tolerability ([3]; Part A, bilaterally for 14 days, 0.01% to 0.1%): acceptable (or improved) safety and tolerability profiles
safety and tolerability compared with 1.25% (w/v) pilocarpine ([3]; Part B, Cohort 7): acceptable (or improved
depth of focus compared with vehicle [3, 6]: improved depth of focus
distance corrected near (and/or intermediate) visual acuity compared with vehicle [3, 6]: numeric improvement (e.g. two or three lines)
patient reported outcome questionnaires/questions compared with vehicle [3, 6]: more positive answers
safety and tolerability ([3]; Part B, both cohorts, bilaterally for 14 days): acceptable safety and tolerability profiles

SMILES: CCc1c(N=C2NCCN2)ccc2[nH]cnc12 [Compound 2, reference compound]
EC50 (human alpha-2A receptor): 11 nM
miotic efficacy compared with other alpha adrenergic receptor agonists (Dutch Belted rabbits; topical dose): much less than brimonidine

SMILES: Brc1c(N=C2NCCN2)ccc2[nH]cnc12 [Compound 3, reference compound]
EC50 (human alpha-2A receptor; [4]): 1 nM
miotic efficacy compared with other alpha adrenergic receptor agonists (Dutch Belted rabbits; topical dose): much less than brimonidine

SMILES: Brc1c(NC2=NCCN2)ccc2nccnc12 [Compound 4, brimonidine, reference compound]
melanin binding (in words) [1]: much more significant binding
animals with greater than 2.5 mm reduction in pupil size from baseline (Dutch Belted rabbits; after 6 hours): virtually none of the animals
animals with greater than 2.5 mm reduction in pupil size from baseline (Dutch Belted rabbits; half hour after dosing): much less than half of the animals
EC50 [2]: 1200 nM
average pupil size after brimonidine (presbyopic patients): 3.4 mm
